In brackets after ≈: the same amount, converted by molar mass. Structures can show the parent of a compound that is named as a salt. Blank lines part the entries; values can stand above or below the molecule they belong to.
What was measured:
[1] = Solubility in water or aqueous solutions; conditions: for solubility: water
[2] = Hydrolysis of ester prodrugs in human plasma solutions (HPLC); conditions: for half-life: pH 7.4; for kinetics (order) of hydrolysis in human plasma: 80% human plasma at 37° C., initial concentration about 10^-4 M
Experimental: Solutions of various derivatives of this invention in aqueous buffer solutions or 50-80% human plasma solutions (pH 7.4) were kept at 37° C. The initial concentration of the derivatives was in the range 3×10^-4 -10^-5 M. At various times an aliquot of the solutions was withdrawn and analyzed by HPLC for remaining derivative as well as for parent acid. For the plasma solutions the aliquot withdrawn was deproteinized with methanol, ethanol or acetonitrile and after centrifugation, the clear supernatant was injected on HPLC.
An HPLC method was used for the determination of the ester derivatives and their parent acids. In this method a reversed-phase LiChrosorb RP-8 column (250×4 mm) was eluted at ambient temperature with mixtures of methanol and 0.01M acetate buffer pH 5.0, methanol and 0.01M phosphate buffer pH 4.5 or methanol and 0.02M phosphate buffer pH 3.5. the composition of the eluant was adjusted for each compound in order to provide an appropriate retention time and separation of ester and the corresponding acid. The flow-rate was 0.6-1.6 ml/min and the column effluent was monitored spectrophotometrically at an appropriate wavelength. Quantitation of the compounds was done by measurement of the peak heights in relation to those of standards chromatographed under the same conditions.

[3] = Oral bioavailability study in rabbits (plasma concentrations); type: in vivo
[4] = not given; remark: listed apart in the source
[5] = Stability in acidic media (0.01M HCl); type: physicochemical; conditions: 37° C., read-out: hydrolysis in 0.01M HCl
[6] = Hydrolysis in aqueous buffer solution pH 7.4; type: physicochemical; conditions: pH 7.4, 37° C., read-out: half-life of hydrolysis in pure buffer solution
[7] = cited from earlier work
[8] = cited from earlier work; remark: listed apart in the source

Compound: O=C(OCC(=O)N(CCO)CCO)c1ccccc1 [Example 17, 2-(benzoyloxy)-N-N-(di-β-hydroxyethyl)acetamide]
solubility [1]: > 700000 µg/mL
S, solubility in water: 720000 µg/mL

Compound: CN(CC(N)=O)C(=O)COC(=O)c1ccccc1O [Example 37, 2-[2-HYDROXYBENZOYLOXY]-(N-METHYL-N-CARBAMOYLMETHYL)-ACETAMIDE]
half-life ([2]; plasma): 0.33 min

Compound: COc1ccc2cc([C@H](C)C(=O)OCC(=O)N(CCO)CCO)ccc2c1 [Example 44, 2-[(+)-6-METHOXY-α-METHYL-2-NAPHTHALENEACETYLOXY]-N,N-(DI-β-HYDROXYETHYL)ACETAMIDE]
solubility in 0.01M HCl relative to parent naproxen ([1]; 0.01M HCl, versus naproxen): more than 20 -fold
absorption following oral administration [3]: efficiently absorbed
conversion of prodrug to naproxen in vivo [3]: rapidly converted back to naproxen in vivo
plasma concentration of intact naproxen prodrug ([3]; equivalent of 4.8 mg/kg naproxen): < 100 ng/mL

Compound: O=C(OCC(=O)N1CCCCC1)c1ccccc1
solubility [1]: 780 µg/mL (≈ 3.15 mM)
half-life ([2]; 50% plasma): 2.5 min
log P (partition coefficient between octanol and water) [4]: 1.95

Compound: Br.CCN(CC)C(=O)COC(=O)[C@@H](N)Cc1ccccc1 [Example 38]
kinetics (order) of hydrolysis in human plasma [2]: first-order kinetics

Compound: O=C(OCC(=O)N1CCCC1=O)c1ccccc1
solubility [1]: 490 µg/mL (≈ 1.98 mM)
half-life ([2]; 50% plasma): 18 min
log P (partition coefficient between octanol and water) [4]: 1.83

Compound: O=C(OCC(=O)N1CCCCCC1)c1ccccc1
solubility [1]: 750 µg/mL (≈ 2.87 mM)
half-life ([2]; 50% plasma): 1 min

Compound: O=C(OCC(=O)N1CCC1)c1ccccc1
solubility [1]: 5400 µg/mL (≈ 24.6 mM)
half-life ([2]; 50% plasma): 0.83 min

Compound: CCN(CC)C(=O)COC(=O)c1ccccc1O [Example 80]
half-life ([2]; 80% plasma): 0.08 min
half-life ([2]; plasma): 0.08 min

Compound: CC(C)CN(CC(C)C)C(=O)COC(=O)c1ccccc1 [Example 15]
solubility [1]: 81 µg/mL (≈ 0.278 mM)
half-life ([2]; 50% plasma): < 1.5 min

Compound: O=C(OCC(=O)N1CCOCC1)c1ccccc1
solubility [1]: 4200 µg/mL (≈ 16.8 mM)
half-life ([2]; 50% plasma): 4.9 min
log P (partition coefficient between octanol and water) [4]: 0.90

Compound: CCN(CC)C(=O)COC(=O)c1ccccc1 [Example 10, 2-(benzoyloxy)-N,N-diethylacetamide]
degraded at 3 h [5]: < 1%
half-life [6]: > 41.7 days
S, solubility in water: 2000 µg/mL

Compound: O=C(OCC(=O)N1CCCC1)c1ccccc1
solubility [1]: 6300 µg/mL (≈ 27 mM)
half-life ([2]; 50% plasma): 5.7 min

Compound: CC(C)Cc1ccc(C(C)C(=O)OCC(=O)N(C)C)cc1 (centres unmarked) [Example 54]
half-life ([2]; plasma): 8.6 min

Compound: CCOC(=O)[C@H](C)C[C@@H](C)C(=O)N1c2ccccc2C[C@H]1C(=O)O [Pentopril]
hydrolysis by plasma enzymes / stability in plasma [7]: highly stable in human plasma
part of oral dose deesterified in vivo to the active parent acid ([8]; oral, Rakhit & Tipnis, 1985): less than 50%

Compound: NC(=O)[C@@H]1CCCN1C(=O)COC(=O)c1ccccc1
solubility [1]: 1500 µg/mL (≈ 5.43 mM)
half-life ([2]; 50% plasma): 2.3 min
log P (partition coefficient between octanol and water) [4]: 0.20

Compound: CCN(CC)C(=O)COC(=O)[C@@H](C)c1ccc2cc(OC)ccc2c1 [Example 35, 2-[(+)-6-METHOXY-α-METHYL-2-NAPHTHALENEACETYLOXY]-N,N-[…]]
kinetics (order) of hydrolysis in human plasma [2]: first-order kinetics

Compound: CC(C)Cc1ccc(C(C)C(=O)OCC(=O)N(C)CC(N)=O)cc1 (stereo not drawn) [Example 41, 2-[α-METHYL-4-(2-METHYLPROPYL)BENZENEACETYLOXY]-(N-METHYL-N-CARBAMOYLMETHYL)ACETAMIDE]
half-life ([2]; plasma): 9.6 min

Compound: O=C(OCC(=O)N1CCC(O)CC1)c1ccccc1
half-life ([2]; 50% plasma): 5.8 min

Compound: COC(=O)[C@H]1CC[C@H](CN)CC1 [Tranexamic acid methyl ester, reference compound]
half-life ([2]; 80% plasma): > 180 min

Compound: CN1CCN(C(=O)COC(=O)c2ccccc2)CC1
solubility [1]: > 100000 µg/mL
half-life ([2]; 50% plasma): 12.7 min

Compound: CCOC(=O)[C@H](CCc1ccccc1)N[C@@H](C)C(=O)N1CCC[C@H]1C(=O)O [Enalapril]
hydrolysis by plasma enzymes / stability in plasma [7]: Plasma enzymes do not hydrolyze the ester
availability of the active parent acid ([8]; Todd & Heel, 1986): incomplete availability of the active parent acid

Compound: O=C(OCC(=O)N(C1CCCCC1)C1CCCCC1)c1ccccc1 [Example 20]
half-life ([2]; 50% plasma): 407 min

Compound: CC(C)Cc1ccc(C(C)C(=O)OCC(=O)N(C)CC(=O)NCN2CCOCC2)cc1 (stereo not drawn) [Example 51, 2-[α-METHYL-4-(2-METHYLPROPYL)BENZENEACETYLOXY]-(N-METHYL-N-(N'-MORPHOLINOMETHYLCARBAMOYL)METHYL)ACETAMIDE HYDROCHLORIDE]
half-life ([2]; plasma): 10.8 min

Compound: C=CCN(CC=C)C(=O)COC(=O)c1ccccc1 [Example 13]
half-life ([2]; 50% plasma): 0.08 min
log P (partition coefficient between octanol and water) [4]: 2.34
S, solubility in water: 710 µg/mL

Compound: CCOC(=O)[C@@H](N)Cc1ccc(O)cc1 [L-Tyrosine ethyl ester, reference compound]
half-life ([2]; 80% plasma): 59 min

Compound: CN1CCN(C(=O)COC(=O)c2ccccc2O)CC1 [Salicylic acid]
half-life ([2]; plasma): 22 min

Compound: CC1CCCC(C)N1C(=O)COC(=O)c1ccccc1 (centres unmarked)
solubility [1]: 150 µg/mL (≈ 0.545 mM)
half-life ([2]; 50% plasma): 0.4 min

Compound: CCCCN(CCCC)C(=O)COC(=O)c1ccccc1 [Example 14]
S, solubility in water: 80 µg/mL

Second part, the molecule after the results:

half-life ([2]; plasma): 3 min
Compound: CCN(CCO)C(=O)COC(=O)c1ccccc1Nc1cccc(Cl)c1C [Example 67]

solubility [1]: > 200000 µg/mL
half-life ([2]; 50% plasma): 0.08 min
Compound: CN(C)CC(=O)OCCN(C)C(=O)COC(=O)c1ccccc1 [R1=CH3, R2=CH2CH2OOCCH2N(CH3)2, n=1]

half-life ([2]; 80% plasma): > 6000 min
Compound: CCOC(=O)c1ccc(N)cc1 [4-Aminobenzoic acid ethyl ester, reference compound]

half-life ([2]; plasma): 26 min
Compound: CCN(CC)C(=O)COC(=O)CC1=C(C)/C(=C/c2ccc([S+](C)[O-])cc2)c2ccc(F)cc21 (centres unmarked) [Example 73]

half-life ([2]; 50% plasma): 5.6 min
Compound: CN(C)C(=O)CCOC(=O)c1ccccc1 [Example 21]

half-life ([2]; plasma): 1.5 min
Compound: COc1ccc2cc([C@H](C)C(=O)OCC(=O)N(C)C)ccc2c1 [Example 52]

half-life ([2]; 80% plasma): 6000 min
Compound: COC(=O)c1ccccc1Nc1cccc(Cl)c1C [Tolfenamic acid methyl ester, reference compound]

half-life ([2]; plasma): 9.2 min
Compound: CN(C)C(=O)COC(=O)CCC(=O)c1ccc(-c2ccccc2)cc1 [Example 60]

half-life ([2]; 80% plasma): 9000 min
Compound: COC(=O)Cc1c(C)n(C(=O)c2ccc(Cl)cc2)c2ccc(OC)cc12 [Indomethacin methyl ester, reference compound]

half-life ([2]; plasma): 140 min
Compound: COc1ccc2c(c1)c(CC(=O)OCC(=O)N(C)CCO)c(C)n2C(=O)c1ccc(Cl)cc1 [Example 63]

half-life ([2]; 80% plasma): 0.5 min
half-life ([2]; plasma): 0.5 min
Compound: CCN(CC)C(=O)COC(=O)C(C)c1cccc(C(=O)c2ccccc2)c1 (centres unmarked) [Example 56]

half-life ([2]; 50% plasma): 1.9 min
Compound: COC(=O)[C@@H]1CCCN1C(=O)COC(=O)c1ccccc1

half-life ([2]; 80% plasma): 13.4 min
half-life ([2]; plasma): 13.4 min
Compound: CCN(CC)C(=O)COC(=O)Cc1ccc(C(=O)c2ccc(C)cc2)n1C [Tolmetin (R1=C2H5, R2=C2H5)]

half-life ([2]; 50% plasma): 0.25 min
Compound: COCCN(CCOC)C(=O)COC(=O)c1ccccc1 [Example 23b]

half-life ([2]; plasma): 4.7 min
Compound: CCN(CC)C(=O)COC(=O)C(C)c1ccc(-c2ccccc2)c(F)c1 (centres unmarked) [Example 59]

half-life ([2]; 50% plasma): 0.1 min
Compound: CCN(C)C(=O)COC(=O)c1ccccc1 [Example 9]

half-life ([2]; plasma): 2.1 min
Compound: CN(CC(N)=O)C(=O)COC(=O)Cc1ccc(-c2ccccc2)cc1 [Example 57]

half-life ([2]; plasma): 88 min
Compound: COc1ccc2c(c1)c(CC(=O)OCC(=O)N(CCO)CCO)c(C)n2C(=O)c1ccc(Cl)cc1 [Example 64]

half-life ([2]; 80% plasma): 282 min
Compound: COC(=O)CCC(=O)c1ccc(-c2ccccc2)cc1 [Fenbufen methyl ester, reference compound]

half-life ([2]; 80% plasma): 3.8 min
half-life ([2]; plasma): 3.8 min
Compound: CCN(CC)C(=O)COC(=O)CCC(=O)c1ccc(-c2ccccc2)cc1 [Example 61]

half-life ([2]; 80% plasma): 5 min
half-life ([2]; plasma): 5 min
Compound: CCN(CC)C(=O)COC(=O)c1ccccc1Nc1cccc(Cl)c1C [Example 66]

half-life ([2]; plasma): 0.08 min
Compound: CN(C)C(=O)COC(=O)c1ccccc1O [Example 79]

half-life ([2]; plasma): 79 min
Compound: CCN(CC)C(=O)COC(=O)c1cc(-c2ccc(F)cc2F)ccc1O [Example 70]

half-life ([2]; 80% plasma): > 3000 min
Compound: COC(=O)c1ccc(O)cc1 [4-Hydroxybenzoic acid methyl ester, reference compound]

half-life ([2]; 80% plasma): 1140 min
Compound: COC(=O)Cc1ccc(C(=O)c2ccc(C)cc2)n1C [Tolmetin methyl ester, reference compound]

half-life ([2]; plasma): 2.5 min
Compound: COc1ccc2cc([C@H](C)C(=O)OCC(=O)N(C)CC(N)=O)ccc2c1 [Example 53]

kinetics (order) of hydrolysis in human plasma [2]: first-order kinetics
half-life ([2]; plasma): 2.3 min
Compound: CC(C(=O)OCC(=O)N(C)CC(N)=O)c1cccc(C(=O)c2ccccc2)c1 (centres unmarked) [Ketoprofen (R1=CH3, R2=CH2CONH2)]

half-life ([2]; plasma): 2.8 min
Compound: Cc1c(Cl)cccc1Nc1ccccc1C(=O)OCC(=O)N(C)C [Example 65]

half-life ([2]; plasma): 1.1 min
Compound: CC(C(=O)OCC(=O)N(C)C)c1cccc(C(=O)c2ccccc2)c1 (centres unmarked) [Example 55]

solubility [1]: > 100000 µg/mL
t1/2, half-life of hydrolysis in 50% human plasma ([2]; 50% human plasma (pH 7.4) at 37° C.): 0.12 min
Compound: CN(C)CCN(C)C(=O)COC(=O)c1ccccc1 [Example 23a]

half-life ([2]; plasma): 10.8 min
Compound: CC(C(=O)OCC(=O)N(C)C)c1ccc(-c2ccccc2)c(F)c1 (centres unmarked) [Example 58]

From patent publication US5073641A, “Prodrug derivatives of carboxylic acid drugs” (priority 1986, dated 1991)
